The text below walks through data of publication PMC5063506, “A Novel Class of Small Molecule Agonists with Preference for Human over Mouse TLR4 Activation” (PLoS ONE, 2016).

Data set [1] is described as follows: Intrinsic clearance in presence of human microsomes. The data set is classed as in vitro ADME. Particulars: read-out: Clint hm (intrinsic clearance, human microsomes). The text has this:
Fig 2 Optimization stages of Ugi products as TLR4 agonists. *Human TLR-4 NFκB SEAP reporter assays; protocol as described in Methods. Data are reported as pEC50, or negative log of the EC50 values. **Clint rh / hm represents intrinsic clearance in presence of rat hepatocytes (μL/min/10^6 cells) and human microsomes (μL/min/mg protein). […] Thus a drug molecule with LogD >4 might be considered to be very lipophilic and therefore more likely to suffer from rapid metabolic turnover, poor solubility and receptor promiscuity; whereas a LogD range of 1–3 is more likely to be associated with optimal physicochemical and drug-like properties. ^††Solubility was measured by dissolution of solid samples in buffer at pH 7.4.

Data set [2] concerns rat PBMCs. Put plainly: Cytokine induction in rat PBMCs (rat MILLIPLEX). The data set is classed as cell-based, Sprague-Dawley rat. To be noted: 1 and 0.2 μg/ml, 24 h. As for the experimental part:
(§1) Splenocytes were isolated from naïve BALB/c mice by dissociating spleens with a GentleMACS (Miltenyi) instrument, then filtration through […] screens. For other species, blood was obtained through venipuncture or cardiac puncture into heparinized tubes, then diluted 1:1 with PBS or HBSS and layered onto Ficoll-Histopaque (GE Healthcare) for blood from healthy human volunteers and cynomolgus macaques, Lympholyte-Mammal (Cedarlane Labs) for New Zealand white rabbits, Sprague-Dawley rats, Hartley guinea pigs, cotton rats, and ferrets, followed by standard density centrifugation techniques. […]
(§2) PBMCs (human, cynomolgus macaque, guinea pig, ferret, rabbit, rat, and cotton rat) or splenocytes (mouse) were seeded onto 96-well flat bottom plates at 5 x 10^5 cells/well and stimulated with TLR4 agonists at 1 and 0.2 μg/ml for 24 h at 37°C. […] For human, cyno, mouse, and rat, cell-free SNs were analyzed via human, NHP, mouse, and rat MILLIPLEX kits. For GP, ferret, rabbit, and CR, cells were lysed by Millipore lysing buffer and snap frozen at -70 C until ready for analysis by Affymetrix QuantiGene 2.0 Plex kits. […] Signal was detected using a Bioplex 200 instrument (BioRad). […]
Fig 8 Secreted cytokine profile of rat PBMCs stimulated by AZ618. […] SNs were analyzed via rat MILLIPLEX kits. Data are expressed as the means of 3 rats at the 1 μg/ml dose of TLR4 agonist and are representative of 2 studies. […]

The subject of data set [3] is cotton rat PBMCs. As to the kind of experiment: Cytokine gene expression in cotton rat PBMCs (QuantiGene Plex). Particulars: 1 μg/ml, 24 h. The data set is classed as cell-based. The protocol: as §1, §2
Fig 9 Species-specific activation of IL-6, TNF-α, and chemokine expression in primary cells. […] For human, cyno, mouse, and rat, SNs were analyzed via human, NHP, mouse, and rat MILLIPLEX kits. […]

Consider `O=C(O)Cc1ccc(C(C(=O)NC2CCCC2)N(C(=O)c2cc(-c3ccccc3)n(-c3ccccc3)n2)c2ccc3c(c2)CCC3)cc1` (stereo not drawn) [AZ617], for which the microsomal CLint in data set [1] was less than 3 µL/min/mg.
As to `Cc1cc(C)cc(N(C(=O)c2cc(-c3ccccc3)n(-c3ccccc3)n2)C(C(=O)NC2CCCC2)c2ccc(CC(=O)O)cc2)c1` (stereo not drawn) [AZ618, 2-(4-(2-(cyclopentylamino)-1-(N-(3,5-dimethylphenyl)-1,5-diphenyl-1H-pyrazole-3-carboxamido)-2-oxoethyl)phenyl)acetic acid], the “response in rat PBMCs (cytokine secretion)” value in data set [2] is listed as “comparable to that induced by MPL”. For the same compound, the “activation of cotton rat PBMCs” value in data set [3] is on record as “able to activate”.
